From patent US10159265B2, “Feed composition for reducing ruminant methanogenesis” (priority 2012, dated 2018)
Marks after values point to notes of the source that are not given here.

Tests used:
[1] = tested on: "in vitro" rumen fluid culture; assay: Biogas production in "in vitro" rumen fluid culture (pressure meter); type: cell-based, calves; set-up: Average biogas production / Cumulative biogas production / Biogas production: unit not given here; settings: for Average biogas production: average over doses and incubation times
Protocol: (§1) Two trials following an identical experimental protocol were designed to study the effect of different pure flavonoids on rumen fermentation using a simulatory “in vitro” system based on the experimental protocol described by Theodorou M K et al. (1994) Animal Feed Science and Technology, 48 (3), p. 185-197; Mauricio, R. M., et al. (1999) Animal Feed Science and Technology 79, 321-330.
Gas production was determined from a semi-automatic pressure meter, the relationship between pressure levels and the produced gas volume was previously calculated.
(§2) Rumen cannulated calves which received a mixed ration mainly composed of concentrate (90:10) were used as rumen fluid donor; feed composition is presented in Table 1. The inoculum was collected and filtered through two-layer surgical gauze and kept in thermo pots. Flavonoids (Table 2) plus 600 mg of concentrate (Table 1) and 60 mg of barley straw as the substrate were dosed by triplicate in preheated bottles (39° C.) and maintained under anaerobic conditions. Flavonoids isonaringin, neoeritrocin, poncirin were purchased from INDOFINE Chemical Company, Inc (USA). 10 ml of rumen fluid and 40 ml of incubation medium were added to the bottles (McDougall, El (1948) Studies on ruminant saliva. 1. The composition and output of sheep's saliva. Biochem J. 43(1) 99-109). Once the bottles were filled and the anaerobic condition was applied, the bottles were sealed and the incubation process was started in a hot water bath. […] Each sample was incubated in triplicate in two sets or batches.

[2] = tested on: methanogenic (archea) populations; assay: Methane production in "in vitro" rumen fluid culture; type: cell-based, calves; set-up: Average methane production / Accumulated methane production / Methane production / Cumulative methane production: unit not given here
Excerpt: as §1, §2
The effects of flavonoids substances on fermentation activity of certain archea populations which are theoretically responsible for the methane production were analyzed.
The experimental design allows determining whether the effect of flavonoids on methane reduction was derived from a general reduction in microbial activity and biogas production or contrarily flavonoid affects specifically on methanogenic (archea) populations. The presence of flavonoids in the culture medium reduced methane contribution in the total biogas production (P<0.05) although, again, the aforementioned impact was heterogeneous.

[3] = tested on: "in vitro" ruminal fluid cultures; assay: Volatile fatty acid concentration and molar proportions in "in vitro" ruminal fluid cultures; type: cell-based, calves
Excerpt: as §1
(§3) Rumen cannulated calves which received a mixed ration mainly composed of concentrate (90:10) were used as rumen fluid donor; feed composition is presented in Table 1. The inoculum was collected and filtered through two-layer surgical gauze and kept in thermo pots. Flavonoids (Table 2) plus 600 mg of concentrate (Table 1) and 60 mg of barley straw as the substrate were dosed by triplicate in preheated bottles (39° C.) and maintained under anaerobic conditions. Flavonoids isonaringin, neoeritrocin, poncirin were purchased from INDOFINE Chemical Company, Inc (USA). 10 ml of rumen fluid and 40 ml of incubation medium were added to the bottles (McDougall, El (1948) Studies on ruminant saliva. 1. The composition and output of sheep's saliva. Biochem J. 43(1) 99-109). Once the bottles were filled and the anaerobic condition was applied, the bottles were sealed and the incubation process was started in a hot water bath. Pressure readings were made at 2, 4, 6, 8, 12, 24, 36 and 48 hours. Each sample was incubated in triplicate in two sets or batches.
[…] P., 1982 Science des Aliments 2, 131-144), lactate (Taylor, K. A. C. C., 1996. Appl. Biochem. Biotechnol. Enzym. Eng. Biotechnol. 56, 49-58) and ammonia (Chaney, A. L., Marbach, E. P., 1962. Clin. Chem. 8, 130-132) analyses.

[4] = tested on: "in vitro" ruminal fluid cultures; assay: Ammonia (N-NH3) concentration in "in vitro" ruminal fluid cultures; type: cell-based, calves
Excerpt: as §1, §3
(§4) After 12 hours of incubation, one bottle (replicate) from each treatment was opened, pH was recorded and the bottle was sampled for volatile fatty acids (Jouany, J. P., 1982 Science des Aliments 2, 131-144), lactate (Taylor, K. A. C. C., 1996. Appl. Biochem. Biotechnol. Enzym. Eng. Biotechnol. 56, 49-58) and ammonia (Chaney, A. L., Marbach, E. P., 1962. Clin. Chem. 8, 130-132) analyses.

[5] = tested on: "in vitro" ruminal fluid culture; assay: Lactate concentration in "in vitro" ruminal fluid culture; type: cell-based, calves; settings: 12 hours of incubation
Excerpt: as §1, §3, §4

[6] = tested on: ruminal bacteria; assay: Bacterial DNA concentration by qPCR; type: cell-based, calves; settings: 12 hours of incubation
Protocol: as §3, §4
(§5) The environmental DNA was extracted using the technique proposed by Yu and Morrison (2004). Quantification of Streptococcus bovis, Megasphaera elsdenii and Selenomonas ruminantium DNA was done by qPCR using specific primers (Tajima, K. et al. 2001. Appl. Environ. Microb. 67, 2766-2774; Ouwerkerk, D., et al. 2002. J. Appl. Microbiol. 92, 753-758). Results were statistically analyzed using the PROC MIXED procedure of SAS statistical package (SAS, 2000, User's guide: Statistics, version 8 editions inst., Inc., Cary, N.C.). The least significant difference was used to compare the means. Differences between means in which P<0.05 were accepted as significant.

[7] = tested on: Streptococcus bovis; assay: qPCR relative quantification of Streptococcus bovis; type: cell-based; settings: 12 hours of incubation
Protocol: as §3, §4, §5

[8] = tested on: Selenomonas ruminantium; assay: qPCR relative quantification of Selenomonas ruminantium; type: cell-based; settings: 12 hours of incubation
Protocol: as §3, §4, §5

[9] = tested on: Megasphaera elsdenii; assay: qPCR relative quantification of Megasphaera elsdenii; type: cell-based; settings: 12 hours of incubation
Protocol: as §3, §4, §5

[10] = tested on: "in vitro" ruminal fluid cultures; assay: Ammonia (N-NH3) concentration in "in vitro" ruminal fluid cultures; type: cell-based, calves; settings: 72 h
[11] = Exp 1, average over doses and incubation times, listed as neohesperidin

Work on `COc1ccc([C@@H]2CC(=O)c3c(O)cc(O[C@@H]4O[C@H](CO)[C@@H](O)[C@H](O)[C@H]4O[C@@H]4O[C@@H](C)[C@H](O)[C@@H](O)[C@H]4O)cc3O2)cc1O` [Neohesperidin, neohesperidin] yielded a Cumulative biogas production ([1]; Exp 1, 12 h incubation) of 175.93, a Cumulative biogas production ([1]; Exp 1, 24 h incubation) of 217.84 and a Cumulative biogas production ([1]; Exp 1, 48 h incubation) of 253.99. The Cumulative biogas production ([1]; Exp 1, 72 h incubation) was 275.06, the Average biogas production ([1]; Exp 1) was 230.71^e and the Average biogas production ([1]; Exp 1, listed as neohesperidin) was 230.7. The Biogas production ([1]; Exp 1, dose 1, 0.2 g/kg DM) was 238.13, the Biogas production ([1]; Exp 1, dose 2, 0.5 g/kg DM) was 223.28 and the “Dosage effect on gas production” value ([1]; Exp 1, inclusion levels 200 and 500 mg/kg) was “more pronounced dosage effect”. For the same molecule, the Average biogas production ([1]; Exp 2 (second trial)) was 268.16^c, the Cumulative biogas production ([1]; Exp 2, 12 h) was 215.60 and the Cumulative biogas production ([1]; Exp 2, 24 h) was 256.18. For the same molecule, the Cumulative biogas production ([1]; Exp 2, 48 h) was 292.28, the Cumulative biogas production ([1]; Exp 2, 72 h) was 308.57 and the Biogas production ([1]; Exp 2, dose 1, 0.2 g/kg DM) was 267.1. The Biogas production ([1]; Exp 2, dose 2, 0.5 g/kg DM) was 269.2, the “Dosage effect on methane production” value ([2]; Exp 1, 200 vs 500 mg/kg DM) was “more reduced by increasing the dose” and the Accumulated methane production ([2]; Exp 1, 12 h) was 18.02. For the same molecule, the “Proportion of methane in the produced biogas” value (“Proportion of methane” for short) ([2]; Exp 1, 12 h) was 10.21, the Accumulated methane production ([2]; Exp 1, 24 h) was 23.15 and the “Proportion of methane” value ([2]; Exp 1, 24 h) was 12.34. For the same molecule, the Accumulated methane production ([2]; Exp 1, 48 h) was 28.84, the “Proportion of methane” value ([2]; Exp 1, 48 h) was 15.91 and the Accumulated methane production ([2]; Exp 1, 72 h) was 32.18. The “Proportion of methane” value ([2]; Exp 1, 72 h) was 16.20, the “Proportion of methane” value ([2]; Exp 1, average over doses and incubation times) was 13.66^d and the Average methane production [2, 11] was “decreased”. For the same molecule, the “Proportion of methane” value [2, 11] was 13.70, the Methane production ([2]; Exp 1, dose 1, 0.2 g/kg DM) was 27.63 and the “Proportion of methane” value ([2]; Exp 1, dose 1, 0.2 g/kg DM) was 13.98. The Methane production ([2]; Exp 1, dose 2, 0.5 g/kg DM) was 23.46, the “Proportion of methane” value ([2]; Exp 1, dose 2, 0.5 g/kg DM) was 13.35 and the Average methane production ([2]; Exp 2 (second trial), average over doses and incubation times) was 30.44^b. For the same molecule, the Cumulative methane production ([2]; Exp 2, 12 h) was 22.52, the Cumulative methane production ([2]; Exp 2, 24 h) was 27.98 and the Cumulative methane production ([2]; Exp 2, 48 h) was 34.31. The Cumulative methane production ([2]; Exp 2, 72 h) was 36.95, the Methane production ([2]; Exp 2, dose 1, 0.2 g/kg DM) was 30.1 and the Methane production ([2]; Exp 2, dose 2, 0.5 g/kg DM) was 30.8. The “% Acetate, molar ratio” value ([3]; 0 h) was 62.51 mol/100 mol, the “% Butyrate, molar ratio” value ([3]; 0 h) was 9.07 mol/100 mol and the “% Propionate, molar ratio” value ([3]; 0 h) was 20.03 mol/100 mol. The “A/P rate (acetate/propionate)” value ([3]; 0 h) was 3.12, the VFA concentration ([3]; 0 h (initial constant value)) was 13.78 mmol/L and the “% Acetate, molar ratio” value ([3]; 12 h) was 54.68 mol/100 mol. The “% Butyrate, molar ratio” value ([3]; 12 h) was 9.68 mol/100 mol, the “% Propionate, molar ratio” value ([3]; 12 h) was 30.05 mol/100 mol and the “A/P rate (acetate/propionate)” value ([3]; 12 h) was 1.82. The VFA concentration ([3]; 12 h) was 36.97 mmol/L, the “% Acetate, molar ratio” value ([3]; 72 h) was 55.68 mol/100 mol and the “% Butyrate, molar ratio” value ([3]; 72 h) was 9.96 mol/100 mol. The “% Propionate, molar ratio” value ([3]; 72 h) was 26.91 mol/100 mol, the “A/P rate (acetate/propionate)” value ([3]; 72 h) was 2.07 and the VFA concentration ([3]; 72 h) was 53.04 mmol/L. For the same molecule, the “% Acetate, molar ratio, average (μ)” value ([3]; average over incubation times) was 57.62 mol/100 mol, the “% Butyrate, molar ratio, average (μ)” value ([3]; average over incubation times) was 9.57 ^a mol/100 mol and the “% Propionate, molar ratio, average (M)” value ([3]; average over incubation times) was 25.66 ^b mol/100 mol. The “VFA concentration, average (μ)” value ([3]; average over incubation times) was 34.60 mmol/L, the N-NH3 concentration ([4]; 0 h (initial constant value)) was 149.99 mg/L and the N-NH3 concentration ([4]; 12 h) was 168.38 mg/L. For the same molecule, the “N-NH3 concentration, average (M)” value ([4]; average over incubation times) was 219.18 mg/L, the Lactate [5] was 45.8 mg/L and the Lactate ([5]; listed as neohesperidin) was “tended to moderate the recorded increase”. The “Bacteria DNA” value [6] was 23.93 ^ab μg/ml, the “Bacteria DNA” value ([6]; listed as neohesperidin) was “increase did only reach statistical significance” and the “Relative Quantification 2^(ΔΔCt) S. bovis” value [7] was 0.25. For the same molecule, the “Relative Quantification 2^(ΔΔCt) S. ruminantium” value [8] was 0.53, the “Relative Quantification 2^(ΔΔCt) M. elsdenii” value [9] was 1.35 ^c and the “Relative Quantification 2^(ΔΔCt) M. elsdenii” value ([9]; listed as neohesperidin) was “improved”. The N-NH3 concentration [10] was 339.17 mg/L.
